Experimental data taken from ChEMBL document CHEMBL1201862, “PubChem BioAssay data set” (2004).
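In this assay, cells in 96-well plates receive the compound at five concentrations for 48 hours. Endpoints are linearly interpolated between the surrounding concentrations. Here, GI50 denotes the concentration required for 50% inhibition of growth.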 Active and inactive are the calls of the source. Cut-off read from the data, not from the text of the source: active = GI50 up to about 1.1 µM and inactive = higher.

How the values were obtained:
Experiment in all cases: growth of human tumour cells (NCI), 48 h
HOP-62 = test system: HOP-62
CCRF-CEM = test system: CCRF-CEM
SF-539 = test system: SF-539
MDA-N = test system: MDA-N
SK-MEL-2 = test system: SK-MEL-2
SK-MEL-28 = test system: SK-MEL-28
HOP-92 = test system: HOP-92
SNB-19 = test system: SNB-19
K562 = test system: K562
SW-620 = test system: SW-620
SK-OV-3 = test system: SK-OV-3
ACHN = test system: ACHN
OVCAR-8 = test system: OVCAR-8
EKVX = test system: EKVX
UO-31 = test system: UO-31
RPMI-8226 = test system: RPMI-8226
HCC 2998 = test system: HCC 2998
OVCAR-4 = test system: OVCAR-4
T47D = test system: T47D
SNB-75 = test system: SNB-75
OVCAR-5 = test system: OVCAR-5
Hs-578T = test system: Hs-578T
CAKI-1 = test system: CAKI-1
KM12 = test system: KM12
MOLT-4 = test system: MOLT-4
SN12C = test system: SN12C
SK-MEL-5 = test system: SK-MEL-5
M14 = test system: M14
PC-3 = test system: PC-3
SR = test system: SR
SF-268 = test system: SF-268
786-0 = test system: 786-0
LOX IMVI = test system: LOX IMVI
NCI-H460 = test system: NCI-H460
SF-295 = test system: SF-295
OVCAR-3 = test system: OVCAR-3
NCI/ADR-RES = test system: NCI/ADR-RES
RXF 393 = test system: RXF 393
TK-10 = test system: TK-10
MDA-MB-435 = test system: MDA-MB-435
BT-549 = test system: BT-549
UACC-257 = test system: UACC-257
U-251 = test system: U-251
HT-29 = test system: HT-29
NCI-H226 = test system: NCI-H226
IGROV-1 = test system: IGROV-1
HCT-15 = test system: HCT-15
NCI-H23 = test system: NCI-H23
A498 = test system: A498
MCF7 = test system: MCF7
COLO 205 = test system: COLO 205
MDA-MB-231 = test system: MDA-MB-231
DU-145 = test system: DU-145
HCT-116 = test system: HCT-116
NCI-H522 = test system: NCI-H522
UACC-62 = test system: UACC-62
HL-60 = test system: HL-60
Malme-3M = test system: Malme-3M
A549 = test system: A549

COc1ccc2[nH]c3nnc(N)c-3nc2c1
GI50 (HOP-62): 6.14 µM (inactive) | GI50 (CCRF-CEM): 9.31 µM (inactive) | GI50 (SF-539): 3.74 µM (inactive) | GI50 (MDA-N): 12 µM (inactive) | GI50 (SK-MEL-2): 5.28 µM (inactive) | GI50 (SK-MEL-28): 11.2 µM (inactive) | GI50 (HOP-92): 10.4 µM (inactive) | GI50 (SNB-19): 16.5 µM (inactive) | GI50 (K562): 62.4 µM (inactive) | GI50 (SW-620): 9.4 µM (inactive) | GI50 (SK-OV-3): 20.4 µM (inactive) | GI50 (ACHN): 3.33 µM (inactive) | GI50 (OVCAR-8): 5.62 µM (inactive) | GI50 (EKVX): 4.26 µM (inactive) | GI50 (UO-31): 9.73 µM (inactive) | GI50 (RPMI-8226): 3.87 µM (inactive) | GI50 (HCC 2998): 14.1 µM (inactive) | GI50 (OVCAR-4): 20 µM (inactive) | GI50 (T47D): 7.5 µM (inactive) | GI50 (SNB-75): 6.79 µM (inactive) | GI50 (OVCAR-5): 7.8 µM (inactive) | GI50 (Hs-578T): 3.81 µM (inactive) | GI50 (CAKI-1): 5.66 µM (inactive) | GI50 (KM12): 5.68 µM (inactive) | GI50 (MOLT-4): 5.73 µM (inactive) | GI50 (SN12C): 18.4 µM (inactive) | GI50 (SK-MEL-5): 8.09 µM (inactive) | GI50 (M14): 12.3 µM (inactive) | GI50 (PC-3): 8.43 µM (inactive) | GI50 (SR): 4.1 µM (inactive) | GI50 (SF-268): 6.21 µM (inactive) | GI50 (786-0): 8.3 µM (inactive) | GI50 (LOX IMVI): 4.11 µM (inactive) | GI50 (NCI-H460): 7.46 µM (inactive) | GI50 (SF-295): 7.66 µM (inactive) | GI50 (OVCAR-3): 3.61 µM (inactive) | GI50 (NCI/ADR-RES): 7.01 µM (inactive) | GI50 (RXF 393): 2.49 µM (inactive) | GI50 (TK-10): 11.3 µM (inactive) | GI50 (MDA-MB-435): 10.2 µM (inactive) | GI50 (BT-549): 13.6 µM (inactive) | GI50 (UACC-257): 17.1 µM (inactive) | GI50 (U-251): 10.6 µM (inactive) | GI50 (HT-29): 5.58 µM (inactive) | GI50 (NCI-H226): 3.85 µM (inactive) | GI50 (IGROV-1): 2.59 µM (inactive) | GI50 (HCT-15): 7.94 µM | GI50 (NCI-H23): 4.17 µM (inactive) | GI50 (A498): 9.79 µM (inactive) | GI50 (MCF7): 3.99 µM (inactive) | GI50 (COLO 205): 3.62 µM (inactive) | GI50 (MDA-MB-231): 18.9 µM (inactive) | GI50 (DU-145): 7.55 µM (inactive) | GI50 (HCT-116): 4.04 µM (inactive) | GI50 (NCI-H522): 5.83 µM (inactive) | GI50 (UACC-62): 7.01 µM (inactive) | GI50 (HL-60): 2.13 µM (inactive) | GI50 (Malme-3M): 21.8 µM (inactive) | GI50 (A549): 4.14 µM (inactive)

O=C1C(NCCc2ccc(O)c(O)c2)=CC(=O)c2ncccc21
GI50 (HOP-62): 19.2 µM (inactive) | GI50 (CCRF-CEM): 3.22 µM (inactive) | GI50 (SF-539): 14.2 µM (inactive) | GI50 (MDA-N): 2.03 µM (inactive) | GI50 (SK-MEL-2): 3.1 µM (inactive) | GI50 (SK-MEL-28): 11.8 µM (inactive) | GI50 (HOP-92): 20.1 µM (inactive) | GI50 (SNB-19): 18.5 µM (inactive) | GI50 (K562): 2.42 µM (inactive) | GI50 (SW-620): 14.4 µM (inactive) | GI50 (SK-OV-3): 15.7 µM (inactive) | GI50 (ACHN): 11.1 µM (inactive) | GI50 (OVCAR-8): 13.4 µM (inactive) | GI50 (EKVX): 17.6 µM (inactive) | GI50 (UO-31): 11.4 µM (inactive) | GI50 (RPMI-8226): 16.6 µM (inactive) | GI50 (HCC 2998): 13 µM (inactive) | GI50 (OVCAR-4): 16.9 µM (inactive) | GI50 (T47D): 22.7 µM (inactive) | GI50 (SNB-75): 5.96 µM (inactive) | GI50 (OVCAR-5): 19.7 µM (inactive) | GI50 (Hs-578T): 5.82 µM (inactive) | GI50 (CAKI-1): 5.52 µM (inactive) | GI50 (KM12): 13.2 µM (inactive) | GI50 (MOLT-4): 8.51 µM (inactive) | GI50 (SN12C): 10.1 µM (inactive) | GI50 (SK-MEL-5): 2.93 µM (inactive) | GI50 (M14): 14.7 µM (inactive) | GI50 (PC-3): 21.9 µM (inactive) | GI50 (SR): 9.98 µM (inactive) | GI50 (SF-268): 13.3 µM (inactive) | GI50 (786-0): 15.3 µM (inactive) | GI50 (LOX IMVI): 4.45 µM (inactive) | GI50 (NCI-H460): 9.46 µM (inactive) | GI50 (SF-295): 12.6 µM (inactive) | GI50 (OVCAR-3): 2.06 µM (inactive) | GI50 (NCI/ADR-RES): 14.4 µM (inactive) | GI50 (RXF 393): 13.8 µM (inactive) | GI50 (TK-10): 36.2 µM (inactive) | GI50 (MDA-MB-435): 1.7 µM (inactive) | GI50 (BT-549): 4.28 µM (inactive) | GI50 (UACC-257): 5.36 µM (inactive) | GI50 (U-251): 4.3 µM (inactive) | GI50 (HT-29): 30.3 µM (inactive) | GI50 (NCI-H226): 13.7 µM (inactive) | GI50 (IGROV-1): 9.53 µM (inactive) | GI50 (HCT-15): 13.4 µM | GI50 (NCI-H23): 7.36 µM (inactive) | GI50 (A498): 20.7 µM (inactive) | GI50 (MCF7): 4.02 µM (inactive) | GI50 (COLO 205): 14.7 µM (inactive) | GI50 (MDA-MB-231): 5.14 µM (inactive) | GI50 (DU-145): 9.86 µM (inactive) | GI50 (HCT-116): 12.2 µM (inactive) | GI50 (NCI-H522): 2.36 µM (inactive) | GI50 (UACC-62): 5.37 µM (inactive) | GI50 (HL-60): 15.8 µM (inactive) | GI50 (Malme-3M): 4.95 µM (inactive) | GI50 (A549): 14.9 µM (inactive)
